Measurements as given in BindingDB's records for doi:10.1021/jm00352a016 (1983).

Molecular target: Adenylate kinase 2 (Rattus norvegicus) (UniProt P29410)
Assay: Inhibitory activity against rat adenylate kinase II (AK-II) isoenzyme was determined in the presence of ATP, non competitive inhibition

- Ki: 87 mM
Compound: Nc1ncnc2c1ncn2[C@@H]1O[C@H](CO)[C@@H](O)[C@H]1O [[U-14C]adenosine]
